For 14 compounds, Ki results are on record in patent US10988477B2 (Merck Patent GmbH, priority 2018, dated 2021).

For this assay, the target named is GCN2 kinase (Homo sapiens, UniProt Q9P2K8). Briefly: GCN2 enzyme inhibition assay (Transcreener ADP2 fluorescence polarization). The assay is classed as biochemical. As to conditions: Enzyme activity for compounds of Formula IV; Ki(app), 280 μM ATP, 25° C. Summed up:
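FP detection of ADP (antibody plus Alexa633 tracer) after a 1 h, 25 °C kinase reaction. Enzyme 4 nM, ATP 280 μM, (RS)7 peptide 200 μM, Tris pH 7.5 buffer with MgCl2 and DTT. Percent inhibition fitted by non-linear tight-binding algorithm for IC50 and Ki(app).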
(In general: Fluorescence polarisation rises when a labelled molecule tumbles more slowly, as on binding a larger partner.)

Sequence of GCN2 kinase (Q9P2K8 whole entry): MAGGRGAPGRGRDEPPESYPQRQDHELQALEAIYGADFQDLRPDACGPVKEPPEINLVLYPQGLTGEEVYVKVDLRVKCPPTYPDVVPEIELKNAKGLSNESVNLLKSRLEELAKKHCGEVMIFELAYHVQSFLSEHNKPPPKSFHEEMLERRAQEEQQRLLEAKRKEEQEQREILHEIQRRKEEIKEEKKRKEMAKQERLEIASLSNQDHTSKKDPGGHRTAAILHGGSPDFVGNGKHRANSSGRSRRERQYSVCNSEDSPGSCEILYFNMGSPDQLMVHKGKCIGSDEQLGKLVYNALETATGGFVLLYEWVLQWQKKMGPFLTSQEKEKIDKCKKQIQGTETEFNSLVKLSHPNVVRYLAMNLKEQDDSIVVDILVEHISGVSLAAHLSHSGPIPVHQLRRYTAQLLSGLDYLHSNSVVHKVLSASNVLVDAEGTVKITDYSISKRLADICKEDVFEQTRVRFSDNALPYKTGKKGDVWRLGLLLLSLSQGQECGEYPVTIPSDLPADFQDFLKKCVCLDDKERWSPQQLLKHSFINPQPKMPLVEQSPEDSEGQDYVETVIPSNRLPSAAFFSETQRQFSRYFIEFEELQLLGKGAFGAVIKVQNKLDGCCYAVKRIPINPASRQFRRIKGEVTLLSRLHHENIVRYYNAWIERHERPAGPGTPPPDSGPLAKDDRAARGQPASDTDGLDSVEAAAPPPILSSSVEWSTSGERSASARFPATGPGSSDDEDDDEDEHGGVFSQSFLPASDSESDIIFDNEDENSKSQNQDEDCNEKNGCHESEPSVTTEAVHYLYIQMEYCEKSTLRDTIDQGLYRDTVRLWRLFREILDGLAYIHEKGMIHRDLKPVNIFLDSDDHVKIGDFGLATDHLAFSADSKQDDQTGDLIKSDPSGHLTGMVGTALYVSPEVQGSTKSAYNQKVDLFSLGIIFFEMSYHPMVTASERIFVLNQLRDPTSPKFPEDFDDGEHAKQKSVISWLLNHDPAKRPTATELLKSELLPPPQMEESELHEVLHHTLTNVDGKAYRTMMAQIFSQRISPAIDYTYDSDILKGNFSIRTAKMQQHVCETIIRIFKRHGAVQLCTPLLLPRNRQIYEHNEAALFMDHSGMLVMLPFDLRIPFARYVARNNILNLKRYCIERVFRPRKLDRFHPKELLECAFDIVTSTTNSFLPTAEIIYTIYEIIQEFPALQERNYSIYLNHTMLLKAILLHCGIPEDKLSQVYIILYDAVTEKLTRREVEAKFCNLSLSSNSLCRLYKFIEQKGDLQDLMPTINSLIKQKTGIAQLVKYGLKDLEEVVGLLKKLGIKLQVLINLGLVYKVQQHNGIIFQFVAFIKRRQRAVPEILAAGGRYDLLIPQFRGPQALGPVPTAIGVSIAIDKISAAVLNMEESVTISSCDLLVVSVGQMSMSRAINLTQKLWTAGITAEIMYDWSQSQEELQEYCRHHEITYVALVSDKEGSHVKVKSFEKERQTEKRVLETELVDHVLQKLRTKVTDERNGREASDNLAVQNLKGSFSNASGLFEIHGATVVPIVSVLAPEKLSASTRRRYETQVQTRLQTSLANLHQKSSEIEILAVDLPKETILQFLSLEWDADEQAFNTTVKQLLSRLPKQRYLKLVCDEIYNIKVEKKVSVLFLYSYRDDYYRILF

For `FC(F)(F)c1cn2c(-c3nccc(N4CCC(n5ccnc5)C4)n3)cnc2cn1` (centres unmarked) [IV-564, 3-(4-(3-(1H-Imidazol-1-yl)pyrrolidin-1-yl)pyrimidin-2-yl)-6-(trifluoromethyl)imidazo[1,2-a]pyrazine], the Ki lay in the range of 100 to 1000 nM.
Consider `CN1CC2(CCN(c3ccnc(-c4cnc5cnc(C(F)(F)F)cn45)n3)C2)OCC1=O` (centres unmarked) [IV-565, 9-Methyl-2-(2-(6-(trifluoromethyl)imidazo[1,2-a]pyrazin-3-yl)pyrimidin-4-yl)-6-oxa-2,9-diazaspiro[4.5]decan-8-one], for which the Ki was 100 to 1000 nM.
With `NC(=O)CN1CCCN(c2ccnc(-c3cnc4cnc(C(F)(F)F)cn34)n2)CC1` [IV-566, 2-(4-(2-(6-(Trifluoromethyl)imidazo[1,2-a]pyrazin-3-yl)pyrimidin-4-yl)-1,4-diazepan-1-yl)acetamide], the Ki lay in the range of 100 to 1000 nM.
The result for `O=C1NCCN2CCN(c3ccnc(-c4cnc5cnc(C(F)(F)F)cn45)n3)CC12` (centres unmarked) [IV-568, 8-(2-(6-(Trifluoromethyl)imidazo[1,2-a]pyrazin-3-yl)pyrimidin-4-yl)hexahydro-2H-pyrazino[1,2-a]pyrazin-1(6H)-one] reads 100 to 1000 nM; that for `CC1CN(c2ccnc(-c3cnc4cnc(C(F)(F)F)cn34)n2)CC1N1CCOCC1` (centres unmarked) [IV-569, 4-(4-Methyl-1-(2-(6-(trifluoromethyl)imidazo[1,2-a]pyrazin-3-yl)pyrimidin-4-yl)pyrrolidin-3-yl)morpholine], 100 to 1000 nM.
The compound `O=S1(=O)CCC2CN(c3ccnc(-c4cnc5cnc(C(F)(F)F)cn45)n3)CC21` (centres unmarked) [IV-570, 5-(2-(6-(Trifluoromethyl)imidazo[1,2-a]pyrazin-3-yl)pyrimidin-4-yl)hexahydro-2H-thieno[2,3-a]pyrrole 1,1-dioxide] registered a Ki of 100 to 1000 nM.
In the case of `O=C1CN(c2ccnc(-c3cnc4cnc(C(F)(F)F)cn34)n2)CC2CCCCN12` (centres unmarked) [IV-571, 2-(2-(6-(Trifluoromethyl)imidazo[1,2-a]pyrazin-3-yl)pyrimidin-4-yl)octahydro-4H-pyrido[1,2-a]pyrazin-4-one] it was 100 to 1000 nM; in that of `CN1CC2(CCN(c3ccnc(-c4cnc5cnc(C(F)(F)F)cn45)n3)C2)OC1=O` (centres unmarked) [IV-579, 3-Methyl-7-(2-(6-(trifluoromethyl)imidazo[1,2-a]pyrazin-3-yl)pyrimidin-4-yl)-1-oxa-3,7-diazaspiro[4.4]nonan-2-one], 100 to 1000 nM.
For `CC1(C(N)=O)CCN(c2ccnc(-c3cnc4cnc(C(F)(F)F)cn34)n2)C1` (centres unmarked) [IV-581, 3-Methyl-1-(2-(6-(trifluoromethyl)imidazo[1,2-a]pyrazin-3-yl)pyrimidin-4-yl)pyrrolidine-3-carboxamide], the Ki lay within 100 to 1000 nM.
For `O=C1NCCN1C1CCCN(c2ccnc(-c3cnc4cnc(C(F)(F)F)cn34)n2)C1` (centres unmarked) [IV-584, 1-(1-(2-(6-(Trifluoromethyl)imidazo[1,2-a]pyrazin-3-yl)pyrimidin-4-yl)piperidin-3-yl)imidazolidin-2-one], the Ki fell in the range of 100 to 1000 nM.
The result for `CN1CCN(c2ccnc(-c3cnc4cnc(C(F)(F)F)cn34)n2)CC1` [IV-585, 3-(4-(4-Methylpiperazin-1-yl)pyrimidin-2-yl)-6-(trifluoromethyl)imidazo[1,2-a]pyrazine] reads 100 to 1000 nM.
As for `COCC1CN(c2ccnc(-c3cnc4cnc(C(F)(F)F)cn34)n2)CC(C)O1` (centres unmarked) [IV-586, 2-(Methoxymethyl)-6-methyl-4-(2-(6-(trifluoromethyl)imidazo[1,2-a]pyrazin-3-yl)pyrimidin-4-yl)morpholine], the Ki lay within 100 to 1000 nM.
Compound `COCC1CN(c2ccnc(-c3cnc4cnc(C(F)(F)F)cn34)n2)CC(C)O1` (centres unmarked) [IV-587, 2-(Methoxymethyl)-6-methyl-4-(2-(6-(trifluoromethyl)imidazo[1,2-a]pyrazin-3-yl)pyrimidin-4-yl)morpholine] registered a Ki of 100 to 1000 nM.
In turn, `COCC1CN(c2ccnc(-c3cnc4cnc(C(F)(F)F)cn34)n2)CCO1` (centres unmarked) [IV-588, 2-(Methoxymethyl)-4-(2-(6-(trifluoromethyl)imidazo[1,2-a]pyrazin-3-yl)pyrimidin-4-yl)morpholine] displayed a Ki of 100 to 1000 nM.
